From ChEMBL document CHEMBL5370665, “Insight from Linker Investigations: Discovery of a Novel Phenylbenzothiazole Necroptosis Inhibitor Targeting Receptor-Interacting Protein Kinase 1 (RIPK1) from a Phenoxybenzothiazole Compound with Dual RIPK1/3 Targeting Activity” (J Med Chem, 2023) come the findings set out here.

For data set [1], the system named is HT-29. Put plainly: Anti-necroptic activity against human HT-29 cells assessed as inhibition of TSZ (TNFalpha, Smac mimetic and z-VAD-FMK) induced necroptosis pretreated with compound followed by TSZ stimulation for 16 to 18 hrs by CellTiter-Glo Luminescent cell viability assay. The format is functional, cell-based.
A further data set deals with L929. As to the kind of experiment: Anti-necroptic activity against mouse L929 cells assessed as inhibition of […] (mouse TNFalpha, z-VAD-FMK) induced necroptosis at 15 to 500 nM pretreated with compound followed by TZ stimulation for 6 hrs by CellTiter-Glo Luminescent cell viability assay. It counts as functional, cell-based. As to conditions: dose lower […], dose upper 500.0 nM.

The subject of data set [2] is HT-29. Put plainly: Anti-apoptotic activity against human HT-29 cells assessed as inhibition of TC (human TNFalpha, cycloheximide) induced apoptosis upto 1 uM pretreated with compound followed by TC stimulation for 36 hrs by CellTiter-Glo Luminescent cell viability assay. It counts as functional, cell-based.
For data set [3], the target named is T1, Receptor-interacting serine/threonine-protein kinase 1 (Homo sapiens) (UniProt Q13546).
T1 sequence (whole entry): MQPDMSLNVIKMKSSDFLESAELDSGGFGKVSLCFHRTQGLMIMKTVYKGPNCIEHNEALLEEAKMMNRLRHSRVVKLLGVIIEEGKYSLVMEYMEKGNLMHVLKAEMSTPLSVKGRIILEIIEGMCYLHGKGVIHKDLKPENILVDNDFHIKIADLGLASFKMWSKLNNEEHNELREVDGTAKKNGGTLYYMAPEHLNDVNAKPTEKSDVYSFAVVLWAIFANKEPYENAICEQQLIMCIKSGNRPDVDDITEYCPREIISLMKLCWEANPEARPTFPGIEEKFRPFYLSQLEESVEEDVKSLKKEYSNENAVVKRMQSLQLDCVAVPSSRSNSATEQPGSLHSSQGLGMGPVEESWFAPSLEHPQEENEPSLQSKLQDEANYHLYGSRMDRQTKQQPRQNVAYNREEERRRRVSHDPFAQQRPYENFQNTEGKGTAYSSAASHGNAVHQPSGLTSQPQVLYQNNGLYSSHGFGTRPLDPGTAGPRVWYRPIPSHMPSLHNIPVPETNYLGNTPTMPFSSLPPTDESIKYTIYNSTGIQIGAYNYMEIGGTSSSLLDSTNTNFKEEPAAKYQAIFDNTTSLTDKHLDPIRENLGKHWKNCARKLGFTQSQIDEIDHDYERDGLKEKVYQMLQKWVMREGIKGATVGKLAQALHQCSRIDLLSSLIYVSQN
As to the kind of experiment: Inhibition of RIPK1 phosphorylation in TSZ induced human HT-29 cells at 1 uM pretreated with compound followed by TSZ stimulation for 6 hrs by Western blot analysis. The format is cell-based.

Data set [4] has as its target Receptor-interacting serine/threonine-protein kinase 3 (Homo sapiens, UniProt Q9Y572). Put plainly: Inhibition of RIPK3 phosphorylation in TSZ induced human HT-29 cells at 1 to 1000 nM pretreated with compound followed by TSZ stimulation for 6 hrs by Western blot analysis. It counts as cell-based. As to conditions: dose 1-1000 nM.
Data set [5] relates to Mus musculus. Put plainly: Anti-inflammatory activity against C57BL/6J mouse model of TNFalpha-induced systemic inflammatory response syndrome (SIRS) assessed as increase in body temperature at 1.25 mg/kg,po 2 hrs prior to mTNFalpha and z-VAD-FMK stimulation and measured upto 18 hrs by electric thermometer analysis. The format is functional, organism-based. As to conditions: time 20.0 hrs.

In data set [6] the test system is Mus musculus. As to the kind of experiment: Anti-inflammatory activity against C57BL/6J mouse model of TNFalpha-induced systemic inflammatory response syndrome (SIRS) assessed as increase in body temperature at 2.5 mg/kg,po 2 hrs prior to mTNFalpha and z-VAD-FMK stimulation and measured upto 18 hrs by electric thermometer analysis. It counts as functional, organism-based. The settings on record: time 20.0 hrs.

Data set [7] concerns Mus musculus. As to the kind of experiment: Anti-inflammatory activity against C57BL/6J mouse model of TNFalpha-induced systemic inflammatory response syndrome (SIRS) assessed as increase in survival rate at 1.25 mg/kg,po 2 hrs prior to mTNFalpha and z-VAD-FMK stimulation and measured upto 24 hrs. The format is functional. The settings on record: time 26 hrs.
In data set [8] the test system is Mus musculus. Put plainly: Anti-inflammatory activity against C57BL/6J mouse model of TNFalpha-induced systemic inflammatory response syndrome (SIRS) assessed as increase in survival rate at 5 mg/kg,po 2 hrs prior to mTNFalpha and z-VAD-FMK stimulation and measured upto 24 hrs. The format is functional. As to conditions: time 26 hrs.
The test system of data set [9] is Mus musculus. As to the kind of experiment: Anti-inflammatory activity against C57BL/6J mouse model of TNFalpha-induced systemic inflammatory response syndrome (SIRS) assessed as decrease in IL-6 level in heart at 1.25 to 5 mg/kg,po 2 hrs prior to mTNFalpha and z-VAD-FMK stimulation for 8 hrs by ELISA. As to conditions: dose 1.25-5 mg/kg, time 10.0 hrs. The format is functional, organism-based.

In data set [10] the test system is Mus musculus. Put plainly: Anti-inflammatory activity against C57BL/6J mouse model of TNFalpha-induced systemic inflammatory response syndrome (SIRS) assessed as decrease in IL-6 level in liver at 1.25 to 5 mg/kg,po 2 hrs prior to mTNFalpha and z-VAD-FMK stimulation for 8 hrs by ELISA. The format is functional, organism-based. The settings on record: dose 1.25-5 mg/kg, time 10.0 hrs.

Data set [11] deals with Mus musculus. As to the kind of experiment: Anti-inflammatory activity against C57BL/6J mouse model of TNFalpha-induced systemic inflammatory response syndrome (SIRS) assessed as decrease in IL-6 level in kidney at 1.25 to 5 mg/kg,po 2 hrs prior to mTNFalpha and z-VAD-FMK stimulation for 8 hrs by ELISA. The settings on record: dose 1.25-5 mg/kg, time 10.0 hrs. It counts as functional, organism-based.

For data set [12], the system named is Mus musculus. As to the kind of experiment: Anti-inflammatory activity against C57BL/6J mouse model of TNFalpha-induced systemic inflammatory response syndrome (SIRS) assessed as decrease in IL-6 level in intestine at 1.25 to 5 mg/kg,po 2 hrs prior to mTNFalpha and z-VAD-FMK stimulation for 8 hrs by ELISA. It counts as functional, organism-based. As to conditions: dose 1.25-5 mg/kg, time 10.0 hrs.

Data set [13] concerns Mus musculus. As to the kind of experiment: Anti-inflammatory activity against C57BL/6J mouse model of TNFalpha-induced systemic inflammatory response syndrome (SIRS) assessed as decrease in IL-1beta level in lung at 1.25 to 5 mg/kg,po 2 hrs prior to mTNFalpha and z-VAD-FMK stimulation for 8 hrs by ELISA. It counts as functional, organism-based. As to conditions: dose 1.25-5 mg/kg, time 10.0 hrs.

Data set [14] concerns Mus musculus. Put plainly: Anti-inflammatory activity against C57BL/6J mouse model of TNFalpha-induced systemic inflammatory response syndrome (SIRS) assessed as decrease in serum IL-6 level at 5 mg/kg,po 2 hrs prior to mTNFalpha and z-VAD-FMK stimulation for 8 hrs by ELISA. It counts as functional, organism-based. As to conditions: time 10.0 hrs.
Data set [15] in a line: Metabolic stability in human liver mitochondria assessed as degradation rate at 4 micromol/L and measured upto 240 mins. It counts as ADME. As to conditions: 4 h, 4 µM, dose 4 µmol/L.
Data set [16] can be described thus: Metabolic stability in mouse liver mitochondria assessed as degradation rate at 4 micromol/L and measured upto 240 mins. The format is ADME. The settings on record: 4 h, 4 µM, dose 4 µmol/L.
The nature of data set [17]: Acute toxicity in mouse assessed as body weight loss at 100 to 200 mg/kg,IG and measured upto 14 days. As to conditions: in vivo, po, 336 h, dose 100-200 mg/kg, time < 14 day. It counts as organism-based.
Data set [18] can be described thus: Acute toxicity in mouse assessed as increase in body weight at 100 to 200 mg/kg,IG and measured upto 14 days. It counts as organism-based. The settings on record: in vivo, po, 336 h, dose 100-200 mg/kg, time < 14 day.
A short description of data set [19]: Acute toxicity in mouse assessed as pathological damage in spleen at 100 to 200 mg/kg,IG and measured after 14 days by H and E staining based microscopy. It counts as organism-based. The settings on record: in vivo, po, 336 h, dose 100-200 mg/kg, time 14 day.
Data set [20] can be described thus: Acute toxicity in mouse assessed as pathological damage in brain at 100 to 200 mg/kg,IG and measured after 14 days by H and E staining based microscopy. It counts as organism-based. As to conditions: in vivo, po, 336 h, dose 100-200 mg/kg, time 14 day.

SMILES strings stand for the structures. Activity calls are given as the source filed them. The rule behind the calls is not given here.

Receptor-interacting serine/threonine-protein kinase 3, sequence (Q9Y572 whole entry, looked up): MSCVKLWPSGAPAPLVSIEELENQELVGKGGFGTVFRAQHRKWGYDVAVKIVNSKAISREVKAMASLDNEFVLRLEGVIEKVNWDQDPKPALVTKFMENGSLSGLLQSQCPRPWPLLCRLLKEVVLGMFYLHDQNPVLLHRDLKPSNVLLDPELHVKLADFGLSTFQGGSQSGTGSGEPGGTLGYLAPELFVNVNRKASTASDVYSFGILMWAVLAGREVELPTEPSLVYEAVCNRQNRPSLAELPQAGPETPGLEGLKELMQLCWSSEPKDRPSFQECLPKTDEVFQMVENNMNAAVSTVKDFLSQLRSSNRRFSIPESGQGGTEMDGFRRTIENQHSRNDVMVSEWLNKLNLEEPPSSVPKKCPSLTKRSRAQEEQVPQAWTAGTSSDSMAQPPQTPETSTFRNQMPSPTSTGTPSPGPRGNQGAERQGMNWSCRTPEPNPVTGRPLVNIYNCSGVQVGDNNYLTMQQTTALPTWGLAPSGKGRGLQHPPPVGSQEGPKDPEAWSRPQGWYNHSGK

`O=C(Cc1cccc(OC(F)(F)F)c1)Nc1cc(-c2ccc3nc(NC(=O)C4CC4)sc3c2)ccc1F`: the EC50 in the data set with HT-29 [1] turned out to be 17 nM. Besides, the outcome with L929, in the data set on Mus musculus [5], in the data set with Mus musculus [6], in the data set on Mus musculus [13] and in the data set with Mus musculus [14] was Active. Moreover, the result with HT-29 [2] was inactive. In addition, the inhibition result in [3] is “Active”. Further, in [4], the inhibition entry was “Dose-Dependent Effect”. Besides, the survival at 1.25 mg/kg in the data set with Mus musculus [7] is 70%. For the same molecule, the survival at 5 mg/kg in the data set with Mus musculus [8] was 100%. Also, the Activity entry is “Dose-Dependent Effect” with Mus musculus [9]; “Dose-Dependent Effect” in the data set on Mus musculus [10]; “Dose-Dependent Effect” with Mus musculus [11]; “Dose-Dependent Effect” with Mus musculus [12]; “Non-Toxic” in [17]; “Non-Toxic” in data set [18]. For the same molecule, the Activity entry in data set [19] and in [20] was “Non-Toxic” throughout. Moreover, the Stability entry in [15] and in data set [16] was “Stable” each time.
